Each structure is given as a SMILES string. “Also recorded” adds a separate entry of the source.

Data set [1] deals with Alzheimer's disease subjects. Description: Montreal Cognitive Assessment (MoCA) in single-blind S-equol pilot study. It is filed as in vivo, human. The following applies: for MoCA Visit 3 (Mean ± SEM): wash-out evaluation, 2 weeks placebo after S-equol; for percent MoCA score change between visit 1 and visit 2: FIG. 1. As to the method: Alzheimer's disease subjects were recruited through the University of Kansas Alzheimer's Disease Center (ADC). The ADC maintains a clinical cohort whose routine characterizations include Clinical Dementia Rating (CDR) scale ratings, uniform data set (UDS) cognitive testing, and APOE genotyping. The diagnosis of clinic cohort participants is primarily based on CDR and UDS data, and is determined through a consensus conference that includes subspecialty-trained cognitive neurologists and an expert neuropsychologist. Subjects diagnosed with Alzheimer's disease further meet current criteria for that diagnosis in McKhann et al., Alzheimers Dement, 7 (2011) 263-269.
To qualify for the study, participants had to be female with very mild (CDR 0.5) or mild (CDR 1) Alzheimer's disease. Each participant was required to have a study partner. As part of the informed consent process, the subjects and study partners were told that during different parts of the study the participants would receive either an S-equol capsule or an inert placebo. The placebo could not be distinguished from the S-equol by sight, touch, or taste so although the investigators knew whether participants at any given point were receiving S-equol or placebo, the participants themselves were blind to the actual treatment. The S-equol and placebo capsule were provided by Ausio Pharmaceuticals, LLC (Cincinnati, Ohio).
(§1) Subjects received a two week supply of medication, which uniformly consisted of placebo, and were instructed to take the study medication twice a day. At the end of this initial two-week period participants returned to the ADC clinical trials unit for their first study visit (visit 1; lead-in evaluation). Visit 1 procedures included an assessment of study medication compliance, vital signs, a query for perceived side effects, the Montreal Cognitive Assessment (MoCA), and a 40 ml phlebotomy; the blood was used to measure platelet mitochondria cytochrome oxidase (COX) and citrate synthase (CS) activities. At the completion of this visit the next two weeks of study medication was dispensed, which uniformly consisted of 10 mg S-equol capsule.
(§2) At the end of this second two-week period participants returned to the ADC clinical trials unit for their second study visit (visit 2; active treatment evaluation). The same procedures were performed during the lead-in evaluation and dispensed the next two weeks of study medication, which at this point uniformly consisted of placebo.
(§3) At the end of this final two-week period the participants returned to the ADC clinical trials unit for their third study visit (visit 3; wash-out evaluation). The lead-in and active treatment evaluation procedures were performed again, which completed participation in this single-blind study.
(§4) Secondary outcomes included a safety analysis of the S-equol 10 mg twice per day dose and an analysis of MoCA scores.

The subject of data set [2] is platelet mitochondria cytochrome oxidase (COX). Description: Platelet mitochondria COX activity referenced to CS activity (COX/CS) in S-equol pilot study. It is filed as in vivo, human. To be noted: for COX/CS Visit 3 (Mean ± SEM): wash-out, 2 weeks placebo after S-equol. Here is the method: as §1, §2, §3
Forty milliliter blood samples were collected in tubes containing acid-citrate-dextrose (ACD) tubes as an anticoagulant, and maintained at room temperature. Within 24 hours of phlebotomy the blood was processed by the ADC Mitochondrial Genomics and Metabolism Core. To initiate the processing procedure, platelets were isolated by centrifugation and enriched mitochondrial fractions prepared using previously described methods. Such procedures involved nitrogen cavitation to rupture platelets followed by centrifugation to collect mitochondria.
The protein concentrations of the enriched mitochondrial fractions were measured using a BCA protein assay kit (BioRad, Hercules, Calif.). COX Vmax activity was determined as a pseudo first order-rate constant (sec-1/mg) by measuring the oxidation of reduced cytochrome c at 550 nm.
In addition to measuring COX activity, each sample's citrate synthase (CS) Vmax activity (nmol/min/mg) was measured. This assay was performed spectrophotometrically by following the formation of 5-thio-2-nitrobenzoate (412 nm) following the addition of 100 μM oxaloacetate at 30° C. In addition to referencing COX activities to total protein, potential inter-sample differences in mitochondrial mass was corrected by referencing the COX activity for each sample to its corresponding CS activity.
An S-equol-associated modification of platelet mitochondria COX activity was designated as the primary outcome measure. To determine whether an S-equol-associated change in platelet mitochondrial COX activity occurred for an individual participant, an anticipated pattern of response analysis was used. It was expected that platelet mitochondria COX activity would increase in response to the active treatment.
Participants were identified as responding (i.e., increasing COX activity in response to treatment, classified as “successes” or “responders”) if the individual change (slope) from the lead-in measurement to the active treatment measurement was greater than the change (slope) from the active-treatment measurement to the wash-out (visit 3) measurement.

In data set [3] the test system is Alzheimer's disease patients. Description: Safety analysis of S-equol 10 mg twice per day. To be noted: S-equol 10 mg twice per day for two weeks. It is filed as in vivo, human. As to the method: as §1, §4
For a further data set, the system named is cytochrome oxidase (COX). The following applies: brains from ovariectomized mice; cited from earlier work.

On to `Oc1ccc([C@H]2COc3cc(O)ccc3C2)cc1` [S-equol], for which the “MoCA Visit 3 (Mean ± SEM)” value in data set [1] (APOE4 carriers, 8 participants) was determined as 15.9 ± 2.7; in data set [1] (APOE4 non-carriers, 7 participants), 12.4 ± 1.6; in data set [1] (Total, 15 participants) it was 14.3 ± 1.6. Moreover, the “percent MoCA score change between visit 1 and visit 2” value is recorded as “trended in a downward direction” in data set [1] (APOE4 carriers) and “in an upward direction” in data set [1] (APOE4 non-carriers). In addition, the “differences in mean MoCA scores between visits, or between APOE4 carriers and non-carriers” value in data set [1] (visits 1-3) is listed as “No significant differences were observed”. Further, the COX/CS Visit 3 (Mean ± SEM) in data set [2] (APOE4 carriers, 8 participants) is 4.4e-05; in data set [2] (APOE4 non-carriers, outlier excluded, 6 participants) it was 4.1e-05; in data set [2] (APOE4 non-carriers, outlier included, 7 participants), 5.1E−05 ± 1.1E−05; in data set [2] (Total, outlier excluded, 14 participants) it was 4.2e-05; in data set [2] (Total, outlier included, 15 participants), 4.7e-05. Moreover, in data set [2] (non-APOE4 carriers versus APOE4 carriers, FIG. 3), the “percent COX/CS change between visit 1 and visit 2” value was “trended higher in the non-APOE4 carriers than it did in the APOE4 carriers”. Besides, the “differences in mean COX/CS values between visits, or between APOE4 carriers and non-carriers” value in data set [2] (visits 1-3) is “No significant differences were observed”. Moreover, the adverse events entry in data set [3] was “No treatment-related adverse events (either serious or non-serious) were observed; also recorded: No adverse events occurred”. Further, the COX1 protein levels entry in the data set with cytochrome oxidase (COX) is listed as “increase”. Besides, the “cytochrome oxidase (COX) activity” value in the data set with cytochrome oxidase (COX) was “increase”.
